What was measured:
[1] = target: T1, NHE3 (Homo sapiens, UniProt P48764); test: Cell-based assay of NHE-3 activity (pre-incubation inhibition), human; details: human Preincubation; for pIC50: 0-30 μM test compound
T1 construct: expressed in transfected cells
T1 sequence (P48764 26-834): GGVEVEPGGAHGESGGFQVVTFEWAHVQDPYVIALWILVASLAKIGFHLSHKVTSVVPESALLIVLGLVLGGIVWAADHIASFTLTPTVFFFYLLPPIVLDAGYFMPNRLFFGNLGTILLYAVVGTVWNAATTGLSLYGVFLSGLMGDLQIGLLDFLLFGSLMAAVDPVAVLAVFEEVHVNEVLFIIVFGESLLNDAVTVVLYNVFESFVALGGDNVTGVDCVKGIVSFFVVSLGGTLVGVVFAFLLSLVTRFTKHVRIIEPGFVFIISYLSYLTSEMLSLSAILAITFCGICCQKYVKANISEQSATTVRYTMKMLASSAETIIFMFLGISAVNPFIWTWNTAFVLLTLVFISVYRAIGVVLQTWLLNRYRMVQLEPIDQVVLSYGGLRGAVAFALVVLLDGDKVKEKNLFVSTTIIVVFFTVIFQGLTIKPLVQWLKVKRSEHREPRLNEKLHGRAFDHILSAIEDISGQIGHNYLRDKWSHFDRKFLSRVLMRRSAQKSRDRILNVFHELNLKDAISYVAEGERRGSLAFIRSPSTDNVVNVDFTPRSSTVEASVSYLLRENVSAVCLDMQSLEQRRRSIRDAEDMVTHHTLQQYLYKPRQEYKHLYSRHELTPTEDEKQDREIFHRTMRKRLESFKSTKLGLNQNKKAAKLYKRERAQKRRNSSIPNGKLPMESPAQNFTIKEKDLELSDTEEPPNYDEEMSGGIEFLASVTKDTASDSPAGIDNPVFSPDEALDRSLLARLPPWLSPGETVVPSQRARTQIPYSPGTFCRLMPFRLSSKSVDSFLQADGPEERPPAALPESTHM
T1 sequence (Q99653 2-195 partner limits assumed): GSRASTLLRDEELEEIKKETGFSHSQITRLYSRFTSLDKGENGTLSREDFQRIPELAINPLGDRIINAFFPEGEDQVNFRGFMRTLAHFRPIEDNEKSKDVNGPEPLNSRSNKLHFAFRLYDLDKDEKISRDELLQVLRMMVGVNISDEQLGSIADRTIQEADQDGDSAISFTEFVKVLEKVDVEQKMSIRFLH
Outline: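 Activity read as initial rate of BCECF fluorescence ratio change per minute (ex 439/505, em 538 nm) following NH4Cl prepulse acid loading. Compound (0–30 μM) present during 10 min Na+-free acidification at room temperature; cells were PS120 fibroblasts stably co-expressing human NHE3 and NHERF2.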

[2] = test system: human duodenum monolayer culture; test: Sustained inhibition of apical acid secretion in human organoid monolayer cell cultures (duodenum); type: cell-based; details: 1 μM apical, inhibition of apical acid secretion vs DMSO
Experimental: Basal media (BM) consisted of advanced DMEM/F12 containing 10 mM HEPES Invitrogen, 15630-080), 1:100 Glutamax (Invitrogen, 35050-061), and 1:100 penicillin/streptomycin (Invitrogen, 15140-122). Supplemented basal media (SBM) contained 1:100 N2 (Invitrogen, 17502-048), 1:50 B27 (Invitrogen, 12587-010), 1 mM N-acetylcysteine (Sigma, A9165), and 10 nM [Leu15]-gastrin I (Sigma, G9145). Growth factors used included 50 ng per mL mouse EGF (Peprotech, 315-09), 100 ng per mL mouse noggin (Peprotech, 250-38), 500 ng per mL human R-spondin 1 (R&D, 4645-RS), 100 ng per mL mouse Wnt-3a (R&D, 1324-WN), 20 μM. Y-27632 (Tocris, 1254), 10 mM nicotinamide (Sigma, N0636), 500 nM A83-01 (Tocris, 2939), 10 μM SB202190 (Tocris, 1264). Transwells were 0.4 μm pore polyester membrane 24-well Transwell inserts (Corning). Cultures were incubated at 37° C. in 5% CO2.
Each human ileum monolayer culture well was washed twice with fresh SBM on the apical side on day 6 before compound dosing. All compound stocks were 10 mM dissolved in DMSO. Each compound stock was individually mixed with fresh SBM to reach final compound concentration 1 μM and dosed only on the apical side of the monolayer (total volume 200 μl). DMSO at the equivalent concentration was used as the vehicle control. Duplicate wells were dosed for each compound. On day 8, apical media pH was measured by pH electrode, to determine the ability of example compounds to produce sustained inhibition of NHE3 activity in a human monolayer culture system by preventing proton secretion into the apical compartment.
Human duodenum organoids were cultured in WENRNAS (Wnt, EGF, noggin, R-spondin1, Nicotinamide, A83-01, SB202190) and typically grown for 7-12 days before being used to plate monolayer cultures. On day 0, organoid cultures embedded in Matrigel were treated with TrypLE Express to break organoids into small pieces and/or single cells. The cells were resuspended to 0.5×10^6 cells/mL in SBM containing WENRAY (Wnt, EGF, noggin, R-spondin1, A83-01, Y-27632). Following this step, 200 μL of cell suspension was plated into the apical side of a 24-well Transwell (100,000 cells/well) and 600 μL of SBM with WENRAY was added to the basolateral side. Duodenum cells were differentiated with ENA (EGF, noggin, A83-01) on day 3. The color of apical compartment turns from pink or orange to yellow due to the increase in NHE3 expression after differentiation.

Molecule	% inhibition [1]	% inhibition (duodenum) [2]	pIC50 [1]
3-[2-(2-[2-[(4-[[(1S,2S)-4,6-Dichloro-2-[(3R)-3-[methyl(propan-2-yl)amino]piperidin-1-yl]-2,3-dihydro-1H-inden-1-yl]oxy]benzene) sulfonamido]ethoxy]ethoxy)ethyl]-1-[4-([[2-(2-[2-[(4-[[(1S,2S)-4,6-dichloro-2-[(3R)-3-[methyl(propan-2-yl)amino]piperidin-1-yl]-2,3-dihydro-1H-inden-1-yl]oxy]benzene)sulfonamido]ethoxy]ethoxy)ethyl]carbamoyl]amino)butyl]urea; bis(trifluoroacetic acid) [Example 78]	C (>70%)	C (>70%)	
Cc1cc(Cl)cc2c1C[C@H](N1CCC[C@@H](N(C)C)C1)[C@H]2Oc1ccc(S(=O)(=O)NCCOCCOCCNC(=O)NCCCCNC(=O)NCCOCCOCCNS(=O)(=O)c2ccc(O[C@H]3c4cc(Cl)cc(C)c4C[C@@H]3N3CCC[C@@H](N(C)C)C3)c(F)c2)cc1F [Example 30, 3-[2-(2-[2-[(4-[[(1S,2S)-6-Chloro-2-[(3R)-3-(dimethylamino)piperidin-1-yl]-4-methyl-2,3-dihydro-1H-inden-1-yl]oxy]-3-fluorobenzene)sulfonamido]ethoxy]ethoxy)ethyl]-1-[4-([[2-(2-[2-[(4-[[(1S,2S)-6-chloro-2-[(3R)-3-(dimethylamino)piperidin-1-yl]-4-methyl-2,3-dihydro-1H-inden-1-yl]oxy]-3-fluorobenzene)sulfonamido]ethoxy]ethoxy)ethyl]carbamoyl]amino)butyl]urea; bis(trifluoroacetic acid)]	C (>70%)		C (NHE3 pIC50 > 7)
Cc1cc(S(=O)(=O)N[C@@H]2CCN(CCOCCNC(=O)NCCCCNC(=O)NCCOCCN3CC[C@@H](NS(=O)(=O)c4ccc(O[C@H]5c6cc(Cl)cc(Cl)c6C[C@@H]5N(C)C)c(C)c4)C3)C2)ccc1O[C@H]1c2cc(Cl)cc(Cl)c2C[C@@H]1N(C)C [Example 53, 3-(2-[2-[(3R)-3-[(4-[[(1S,2S)-4,6-Dichloro-2-(dimethylamino)-2,3-dihydro-1H-inden-1-yl]oxy]-3-methylbenzene)sulfonamido]pyrrolidin-1 yl]ethoxy]ethyl)-1-(4-[[(2-[2-[(3R)-3-[(4-[[(1S,2S)-4,6-dichloro-2-(dimethylamino)-2,3-dihydro-1H-inden-1-yl]oxy]-3-methylbenzene)sulfonamido]pyrrolidin-1-yl]ethoxy]ethyl)carbamoyl]amino]butyl)urea]	C (>70%)		C (NHE3 pIC50 > 7)
Cc1cc(O[C@H]2c3cc(Cl)cc(Cl)c3C[C@@H]2N(C)C)c(F)cc1S(=O)(=O)NCCOCCOCCNC(=O)NCCCCNC(=O)NCCOCCOCCNS(=O)(=O)c1cc(F)c(O[C@H]2c3cc(Cl)cc(Cl)c3C[C@@H]2N(C)C)cc1C [Example 88, 3-[2-(2-[2-[(4-[[(1S,2S)-4,6-Dichloro-2-(dimethylamino)-2,3-dihydro-1H-inden-1-yl]oxy]-5-fluoro-2-methylbenzene)sulfonamido]ethoxy]ethoxy)ethyl]-1-[4-([[2-(2-[2-[(4-[[(1S,2S)-4,6-dichloro-2-(dimethylamino)-2,3-dihydro-1H-inden-1-yl]oxy]-5-fluoro-2-methylbenzene)sulfonamido]ethoxy]ethoxy)ethyl]carbamoyl]amino)butyl]urea]	C (>70%)		C (NHE3 pIC50 > 7)
N#Cc1cc(Cl)cc2c1C[C@H](N1CCNCC1)[C@H]2Oc1ccc(S(=O)(=O)N2CCC(NC(=O)CCCNC(=O)NCCCCNC(=O)NCCCC(=O)NC3CCN(S(=O)(=O)c4ccc(O[C@H]5c6cc(Cl)cc(C#N)c6C[C@@H]5N5CCNCC5)cc4)CC3)CC2)cc1 [Example 120, N^1,N^18-Bis(1-([4-([(1S,2S)-6-chloro-4-cyano-2-(piperazin-1-yl)-2,3-dihydro-1H-inden-1-yl]oxy)phenyl]sulfonyl)piperidin-4-yl)-6,13-dioxo-5,7,12,14-tetraazaoctadecanediamide]	C (>70%)		C (NHE3 pIC50 > 7)
C[C@@H]1CN([C@H]2Cc3c(C#N)cc(Cl)cc3[C@@H]2Oc2ccc(S(=O)(=O)N[C@H]3CCN(CCOCCNC(=O)NCCCCNC(=O)NCCOCCN4CC[C@H](NS(=O)(=O)c5ccc(O[C@H]6c7cc(Cl)cc(C#N)c7C[C@@H]6N6CCN[C@H](C)C6)cc5)C4)C3)cc2)CCN1 [Example 132, 4-([(1S,2S)-6-Chloro-4-cyano-2-[(R)-3-methylpiperazin-1-yl]-2,3-dihydro-1H-inden-1-yl]oxy)-N—[(S)-1-(20-[(S)-3-([4-([(1S,2S)-6-chloro-4-cyano-2-[(R)-3-methylpiperazin-1-yl]-2,3-dihydro-1H-inden-1-yl]oxy)phenyl]sulfonamido)pyrrolidin-1-yl]-7,14-diaxo-3,18-dioxa-5,8,13,15-tetraazaicosyl)pyrrolidin-3-yl]benzenesulfonamide; bis(trifluoroacetic acid)]	C (>70%)		C (NHE3 pIC50 > 7)
C[C@@H]1CN([C@H]2Cc3c(C#N)cc(Cl)cc3[C@@H]2Oc2ccc(S(=O)(=O)N[C@@H]3CCN(CCOCCNC(=O)NCCCCNC(=O)NCCOCCN4CC[C@@H](NS(=O)(=O)c5ccc(O[C@H]6c7cc(Cl)cc(C#N)c7C[C@@H]6N6CCN[C@H](C)C6)cc5)C4)C3)cc2)CCN1 [Example 133, 4-([(1S,2S)-6-Chloro-4-cyano-2-[(R)-3-methylpiperazin-1-yl]-2,3-dihydro-1H-inden-1-yl]oxy)-N—[(R)-1-(20-[(R)-3-([4-([(1S,2S)-6-chloro-4-cyano-2-[(R)-3-methylpiperazin-1-yl]-2,3-dihydro-1H-inden-1-yl]oxy)phenyl]sulfonamido)pyrrolidin-1-yl]-7,14-dioxo-3,18-dioxa-6,8,13,15-tetraazaicosyl)pyrrolidin-3-yl]benzenesulfonamide; bis(trifluoroacetic acid)]	C (>70%)		C (NHE3 pIC50 > 7)
N#Cc1cc(Cl)cc2c1C[C@H](N1CCNCC1)[C@H]2Oc1ccc(S(=O)(=O)N[C@H]2CCN(C(=O)CCCNC(=O)NCCCCNC(=O)NCCCC(=O)N3CC[C@H](NS(=O)(=O)c4ccc(O[C@H]5c6cc(Cl)cc(C#N)c6C[C@@H]5N5CCNCC5)cc4)C3)C2)cc1 [Example 143, 4-([(1S,2S)-6-Chloro-4-cyano-2-(piperazin-1-yl)-2,3-dihydro-1H-inden-1-yl]oxy)-N—[(S)-1-(18-[(S)-3-([4-([(1S,2S)-6-chloro-4-cyano-2-(piperazin-1-yl)-2,3-dihydro-1H-inden-1-yl]oxy)phenyl]sulfonamido)pyrrolidin-1-yl]-6,13,18-trioxo-5,7,12,14-tetraazaoctadecanoyl)pyrrolidin-3-yl]benzenesulfonamide]	C (>70%)		C (NHE3 pIC50 > 7)
